Laboratory results published in patent US20090016990A1, “Antimicrobial Compositions” (priority 2007, published 2009).

Legend:
[1] = test system: Pseudomonas aeruginosa ATCC 27853; assay: MBEC assay, biofilm elimination, MBEC bioFILM PA panel; assay type: cell-based; design: MBEC-Biofilm Elimination, Without compound 2 / MBEC-Biofilm Elimination, With 0.01% compound 2 in 5% EtOH/PBS / MBEC-Biofilm Elimination, Without compound 7 / MBEC-Biofilm Elimination, With 0.01% compound 7 in 5% EtOH/PBS / MBEC-Biofilm Elimination, Without compound 1 / MBEC-Biofilm Elimination, With 0.01% compound 1 in 5% EtOH/PBS / MBEC-Biofilm Elimination, without salt of compound 2 / MBEC-Biofilm Elimination, with 0.1% salt of compound 2: unit not given here; conditions: for MBEC-Biofilm Elimination, without salt of compound 2 / MBEC-Biofilm Elimination, with 0.1% salt of compound 2: Table 9; for MBEC-Biofilm Elimination, without salt of compound 2 / MBEC-Biofilm Elimination, without salt of compound 6: antibiotic or antibiotic combination alone; for MBEC-Biofilm Elimination, without salt of compound 2 / MBEC-Biofilm Elimination, with 0.1% salt of compound 2 / MBEC-Biofilm Elimination, without salt of compound 6 / MBEC-Biofilm Elimination, with 0.1% salt of compound 6: value per component; for MBEC-Biofilm Elimination, with 0.1% salt of compound 2: antibiotic or combination plus 0.1% salt of compound 2; for MBEC-Biofilm Elimination, without salt of compound 6 / MBEC-Biofilm Elimination, with 0.1% salt of compound 6: Table 10; for MBEC-Biofilm Elimination, with 0.1% salt of compound 6: antibiotic or combination plus 0.1% salt of compound 6; for MBEC-Biofilm Elimination, Without compound 1 / MBEC-Biofilm Elimination, Without compound 2 / MBEC-Biofilm Elimination, Without compound 3 / MBEC-Biofilm Elimination, Without compound 6 / MBEC-Biofilm Elimination, Without compound 7 / MBEC-Biofilm Elimination, Without compound 9: antibiotic alone
[2] = test system: Pseudomonas aeruginosa ATCC 27853; assay: MBEC assay, biofilm inhibition (prevention of biofilm formation), MBEC bioFILM PA panel; assay type: cell-based; design: MBEC-Biofilm Inhibition, Without compound 9 / MBEC-Biofilm Inhibition, Without compound 6 / MBEC-Biofilm Inhibition, Without compound 2 / MBEC-Biofilm Inhibition, Without compound 7 / MBEC-Biofilm Inhibition, With 0.01% compound 7 in 5% EtOH/PBS / MBEC-Biofilm Inhibition, without salt of compound 2 / MBEC-Biofilm Inhibition, with 0.1% salt of compound 2 / MBEC-Biofilm Inhibition, without salt of compound 6: unit not given here; conditions: for MBEC-Biofilm Inhibition, without salt of compound 2 / MBEC-Biofilm Inhibition, with 0.1% salt of compound 2: Table 9; for MBEC-Biofilm Inhibition, without salt of compound 2 / MBEC-Biofilm Inhibition, without salt of compound 6: antibiotic or antibiotic combination alone; for MBEC-Biofilm Inhibition, without salt of compound 2 / MBEC-Biofilm Inhibition, with 0.1% salt of compound 2 / MBEC-Biofilm Inhibition, without salt of compound 6 / MBEC-Biofilm Inhibition, with 0.1% salt of compound 6: value per component; for MBEC-Biofilm Inhibition, without salt of compound 2: separated by /; for MBEC-Biofilm Inhibition, with 0.1% salt of compound 2: antibiotic or combination plus 0.1% salt of compound 2; for MBEC-Biofilm Inhibition, without salt of compound 6 / MBEC-Biofilm Inhibition, with 0.1% salt of compound 6: Table 10; for MBEC-Biofilm Inhibition, with 0.1% salt of compound 6: antibiotic or combination plus 0.1% salt of compound 6; for MBEC-Biofilm Inhibition, Without compound 1 / MBEC-Biofilm Inhibition, Without compound 2 / MBEC-Biofilm Inhibition, Without compound 3 / MBEC-Biofilm Inhibition, Without compound 6 / MBEC-Biofilm Inhibition, Without compound 7 / MBEC-Biofilm Inhibition, Without compound 9: antibiotic alone
[3] = reduction of antibiotic or combination required to prevent biofilm formation
[4] = with 0.01% compound 1 in 5% EtOH/PBS
[5] = with 0.01% compound 2 in 5% EtOH/PBS

| Structure (SMILES) | MBEC-Biofilm Elimination, without salt of compound 2 [1] | MBEC-Biofilm Elimination, with 0.1% salt of compound 2 [1] | MBEC-Biofilm Elimination, without salt of compound 6 [1] | MBEC-Biofilm Elimination, with 0.1% salt of compound 6 [1] | MBEC-Biofilm Elimination, Without compound 1 [1] | MBEC-Biofilm Elimination, Without compound 2 [1] | MBEC-Biofilm Elimination, Without compound 3 [1] | MBEC-Biofilm Elimination, Without compound 6 [1] | MBEC-Biofilm Elimination, Without compound 7 [1] | MBEC-Biofilm Elimination, Without compound 9 [1] | MBEC-Biofilm Elimination, With 0.01% compound 1 in 5% EtOH/PBS [1] | MBEC-Biofilm Elimination, With 0.01% compound 2 in 5% EtOH/PBS [1] | MBEC-Biofilm Elimination, With 0.01% compound 7 in 5% EtOH/PBS [1] | MBEC-Biofilm Elimination, With 0.05% compound 3 in 5% EtOH/PBS [1] | MBEC-Biofilm Elimination, With 0.05% compound 6 in 5% EtOH/PBS [1] | MBEC-Biofilm Inhibition, without salt of compound 2 [2] | MBEC-Biofilm Inhibition, with 0.1% salt of compound 2 [2] | MBEC-Biofilm Inhibition, without salt of compound 6 [2] | MBEC-Biofilm Inhibition, with 0.1% salt of compound 6 [2] | MBEC-Biofilm Inhibition, Without compound 1 [2] | other results |
| --- | --- | --- | --- | --- | --- | --- | --- | --- | --- | --- | --- | --- | --- | --- | --- | --- | --- | --- | --- | --- | --- |
| O=C(O)c1cn(C2CC2)c2cc(N3CCNCC3)c(F)cc2c1=O [CP, ciprofloxacin] | >0.5 | 0.5 | >0.5 | >0.5 | >0.5 | >0.5 | >0.5 | >0.5 | >0.5 | >0.5 | >0.5 | >0.5 | >0.5 | >0.5 | >0.5 | >0.5 | >0.5 | >0.5 | >0.5 | >0.5 | MBEC-Biofilm Inhibition, Without compound 2 [2]: >0.5; MBEC-Biofilm Inhibition, Without compound 3 [2]: >0.5; MBEC-Biofilm Inhibition, Without compound 6 [2]: >0.5; MBEC-Biofilm Inhibition, Without compound 7 [2]: >0.5; MBEC-Biofilm Inhibition, Without compound 9 [2]: 0.5; MBEC ([2]; antibiotic or combination alone, concentrations in order of the combination): >0.5 µg/mL; MBEC, μg/mL +Compound 1 ([2]; antibiotic plus Compound 1): 0.5 µg/mL; MBEC, μg/mL +Compound 2 ([2]; antibiotic plus Compound 2): >0.5 µg/mL; MBEC, μg/mL +Compound 7 ([2]; antibiotic plus Compound 7): 0.5 µg/mL; (% reduction) +Compound 1 [2, 3]: > 50%; (% reduction) +Compound 7 [2, 3]: > 50%; MBEC-Biofilm Inhibition, With 0.01% compound 1 in 5% EtOH/PBS [2, 4]: 0.5; value in parentheses after MBEC-Biofilm Inhibition with 0.01% compound 1 (% reduction as in Table 2) [2, 4]: ≥ 50; MBEC-Biofilm Inhibition, With 0.01% compound 2 in 5% EtOH/PBS [2, 5]: 0.5; value in parentheses after MBEC-Biofilm Inhibition with 0.01% compound 2 (% reduction as in Table 2) [2, 5]: ≥ 50; MBEC-Biofilm Inhibition, With 0.01% compound 7 in 5% EtOH/PBS [2]: >0.5; MBEC-Biofilm Inhibition, With 0.05% compound 3 in 5% EtOH/PBS [2]: >0.5; MBEC-Biofilm Inhibition, With 0.05% compound 6 in 5% EtOH/PBS [2]: >0.5 |
| CO/N=C(\C(=O)N[C@@H]1C(=O)N2C(C(=O)[O-])=C(C[N+]3(C)CCCC3)CS[C@H]12)c1csc(N)n1 [CPE, cefepime] | >4 | >4 | >4 | >4 | >4 | >4 | >4 | >4 | >4 | >4 | >4 | >4 | >4 | >4 | >4 | >4 | >4 | >4 | >4 | >4 | MBEC-Biofilm Inhibition, Without compound 2 [2]: >4; MBEC-Biofilm Inhibition, Without compound 3 [2]: >4; MBEC-Biofilm Inhibition, Without compound 6 [2]: >4; MBEC-Biofilm Inhibition, Without compound 7 [2]: >4; MBEC-Biofilm Inhibition, Without compound 9 [2]: >4; MBEC-Biofilm Inhibition, With 0.01% compound 1 in 5% EtOH/PBS [2, 4]: >4; MBEC-Biofilm Inhibition, With 0.01% compound 2 in 5% EtOH/PBS [2, 5]: >4; MBEC-Biofilm Inhibition, With 0.01% compound 7 in 5% EtOH/PBS [2]: >4; MBEC-Biofilm Inhibition, With 0.05% compound 3 in 5% EtOH/PBS [2]: >4; MBEC-Biofilm Inhibition, With 0.05% compound 6 in 5% EtOH/PBS [2]: >4 |
